Assay results reported in patent publication US20090110718A1, “Derivatives of tiacumicin B as anti-cancer agents” (Echem Hightech Co., Ltd., priority 2007, published 2009).

Legend:
Type in all cases: cell-based, human
[1] = tested on: HeLa cervical cancer cells; assay: Cell viability assay (MTT), HeLa; conditions: for IC50: 72 hrs treatment, 1 to 10 μM tested, MTT, ± SD, read-out: Observed IC50 for HeLa cervial cancer cells
Description: (§1) Experiments were performed using different cancer cell-lines, which were supplied by the American Type Culture Collection (ATCC), Rockville, Md., USA, and maintained in the recommended culturing media. The detailed steps and condition for cell culture are described as the following: HeLa, humen cervical adenocarcinoma: Minimum essential medium (Eagle) with 2 mM L-glutamine and Earle's BSS adjusted to contain 1.5 g/L sodium bicarbonate, 0.1 mM non-essential amino acids and 1.0 mM sodium pyruvate and supplemented with 0.01 mg/ml insulin, 90%; fetal bovine serum, 10%. […] All test samples were dissolved in absolute ethanol and serial diluted to the testing concentrations. For blank sample, absoluted ethanol was used. The final organic solvent content for all cell assays were less than or equal to 0.1%. The cell viability assay was conducted by using the method described by J. Carmichael, et al in Cancer Research 47:936 (1987). All the cells were seeded into 96-well microtitre plates and incubated at 37° C. under 5% CO2 atmosphere. For MCF7, T-47D and WS1, 3000 cells/100 μl/well were used and for HeLa, 1000 cells/100 μl/well were used. […] After additional 72 hours of incubation at 37° C. under 5% CO2 atmosphere, the cell were then collected and evaluated using MTT assay to assess the cell viability by using the method mentioned above. Error bars are indicated the estimated standard deviation based on three experiments.

[2] = tested on: MCF7 breast cancer cells; assay: Cell viability assay (MTT), MCF7; conditions: for IC50: 72 hrs treatment, 1 to 10 μM tested, MTT, ± SD, read-out: Observed IC50 for MCF7 breast cancer cells
Description: as §1, with “MCF7, human breast” for “HeLa, humen cervical”, “[…] Cultures containing 3000 cells per well were treated with 0, 1, 2.5, 5 and 10 μM (final concentration) of the test samples and the viable cells were counted after 72 hrs. […] In both FIG. 1 and FIG. 2, error” for “Error”

[3] = tested on: T-47D breast cancer cells; assay: Cell viability assay (MTT), T-47D; conditions: 72 hrs treatment, 1 to 10 μM tested, ± SD, read-out: Observed IC50 for T-47D breast cancer cells
Description: as §1, with “media.” for “media. The detailed steps and condition for cell culture are described as the following: HeLa, humen cervical adenocarcinoma: Minimum essential medium (Eagle) with 2 mM L-glutamine and Earle's BSS adjusted to contain 1.5 g/L sodium bicarbonate, 0.1 mM non-essential amino acids and 1.0 mM sodium pyruvate and supplemented with 0.01 mg/ml insulin, 90%; fetal bovine serum, 10%.”, “[…] Cultures containing 3000 cells per well were treated with 0, 1, 2.5, 5 and 10 μM (final concentration) of the test samples and the viable cells were counted after 72 hrs. […] In both FIG. 1 and FIG. 2, error” for “Error”

Compound | IC50 [1] | IC50 [2] | IC50 value compared with tamoxifen, MCF7 ([2]; statement in words) | IC50 [3] | IC50 value compared with tamoxifen, HeLa ([1]; statement in words)
CCc1c(Cl)c(O)c(Cl)c(O)c1C(=O)O[C@@H]1[C@@H](O)[C@@H](OC)[C@@H](OC/C2=C\C=C\CC(O)/C(C)=C/C(CC)C(O[C@@H]3OC(C)(C)[C@H]4OC(c5cccc(O)c5)O[C@@H]4[C@@H]3OC(=O)C(C)C)/C(C)=C/C(C)=C/CC(C(C)O)OC2=O)O[C@H]1C (some centres unmarked) [TB2, 3-hydroxylbenzylidene acetal] | 5.98 ± 0.22 µM | 6.9 ± 0.36 µM | superior to that of tamoxifen | 4.24 ± 0.05 µM | –
CCc1c(Cl)c(O)c(Cl)c(O)c1C(=O)O[C@@H]1[C@@H](O)[C@@H](OC)[C@@H](OC/C2=C\C=C\CC(O)/C(C)=C/C(CC)C(O[C@@H]3OC(C)(C)[C@H]4OC(c5cccc(OC)c5)O[C@@H]4[C@@H]3OC(=O)C(C)C)/C(C)=C/C(C)=C/CC(C(C)O)OC2=O)O[C@H]1C (some centres unmarked) [TB3, 3-methoxylbenzylidene acetal] | 5.99 ± 0.45 µM | 7.09 ± 0.54 µM | – | 4.99 ± 0.22 µM | –
CCc1c(Cl)c(O)c(Cl)c(O)c1C(=O)O[C@@H]1[C@@H](O)[C@@H](OC)[C@@H](OC/C2=C\C=C\CC(O)/C(C)=C/C(CC)C(O[C@@H]3OC(C)(C)[C@H]4OC(c5ccccc5C(F)(F)F)O[C@@H]4[C@@H]3OC(=O)C(C)C)/C(C)=C/C(C)=C/CC(C(C)O)OC2=O)O[C@H]1C (some centres unmarked) [TB5, 2-trifluoromethylbenzylidene acetal] | 5.6 ± 0.37 µM | 5.95 ± 0.46 µM | – | 4.66 ± 0.57 µM | –
CCc1c(Cl)c(O)c(Cl)c(O)c1C(=O)O[C@@H]1[C@@H](O)[C@@H](OC)[C@@H](OC/C2=C\C=C\CC(O)/C(C)=C/C(CC)C(O[C@@H]3OC(C)(C)[C@H]4OC(c5ccccc5C)O[C@@H]4[C@@H]3OC(=O)C(C)C)/C(C)=C/C(C)=C/CC(C(C)O)OC2=O)O[C@H]1C (some centres unmarked) [TB1, 2-methylbenzylidene acetal] | 5.88 ± 0.42 µM | 7.06 ± 0.83 µM | – | 3.99 ± 0.58 µM | –
tiacumicin B [tiacumicin B (TB), reference compound] | 8.54 ± 1.03 µM | 8.39 ± 1 µM | – | 5.56 ± 0.57 µM | –
CCc1c(Cl)c(O)c(Cl)c(O)c1C(=O)O[C@@H]1[C@@H](O)[C@@H](OC)[C@@H](OC/C2=C\C=C\CC(O)/C(C)=C/C(CC)C(O[C@@H]3OC(C)(C)[C@H]4OC(c5ccc(N(CC)CC)cc5)O[C@@H]4[C@@H]3OC(=O)C(C)C)/C(C)=C/C(C)=C/CC(C(C)O)OC2=O)O[C@H]1C (some centres unmarked) [TB6, 4-N,N-diethylaminobenzylidene acetal] | 5.56 ± 0.13 µM | 5.98 ± 0.54 µM | – | 4.77 ± 0.51 µM | superior to that of tanoxifen
CCc1c(Cl)c(O)c(Cl)c(O)c1C(=O)O[C@@H]1[C@@H](O)[C@@H](OC)[C@@H](OC/C2=C\C=C\CC(O)/C(C)=C/C(CC)C(O[C@@H]3OC(C)(C)[C@H]4OC(c5cc(C(C)(C)C)c(O)c(C(C)(C)C)c5)O[C@@H]4[C@@H]3OC(=O)C(C)C)/C(C)=C/C(C)=C/CC(C(C)O)OC2=O)O[C@H]1C (some centres unmarked) [TB8, 4,5-tert-dibutyl-4-hydroxybenzylidene acetal] | 5.76 ± 0.32 µM | 5.78 ± 0.81 µM | – | 4.04 ± 1.09 µM | –
CCc1c(Cl)c(O)c(Cl)c(O)c1C(=O)O[C@@H]1[C@@H](O)[C@@H](OC)[C@@H](OC/C2=C\C=C\CC(O)/C(C)=C/C(CC)C(O[C@@H]3OC(C)(C)[C@H]4OC(c5ccc(N(CC)CC)cc5OC)O[C@@H]4[C@@H]3OC(=O)C(C)C)/C(C)=C/C(C)=C/CC(C(C)O)OC2=O)O[C@H]1C (some centres unmarked) [TB7, 4-N,N-diethylamino-2-methoxybenzylidene acetal] | 5.3 ± 0.49 µM | 6.19 ± 0.68 µM | – | 4.8 ± 0.46 µM | –
CCc1c(Cl)c(O)c(Cl)c(O)c1C(=O)O[C@@H]1[C@@H](O)[C@@H](OC)[C@@H](OC/C2=C\C=C\CC(O)/C(C)=C/C(CC)C(O[C@@H]3OC(C)(C)[C@H]4OC(c5ccccc5Cl)O[C@@H]4[C@@H]3OC(=O)C(C)C)/C(C)=C/C(C)=C/CC(C(C)O)OC2=O)O[C@H]1C (some centres unmarked) [TB4, 2-chlorobenzylidene acetal] | 5.69 ± 0.24 µM | 6.81 ± 0.01 µM | – | 5.66 ± 0.62 µM | –
